Results reported in US20050014847A1, “Ambroxol for the treatment of chronic nociceptive pain” (Boehringer Ingelheim International GmbH, priority 2003, published 2005).

How the values were obtained:
[1] = tested on: Tetrodotoxin-sensitive currents (sodium channels); type: cell-based, rat; details: read-out: IC50 tetrodotoxin-sensitive currents; neuron cultures from posterior root ganglia of adult rats
human GluR1/2 receptors = target: T1, human GluR1/2 receptors (Homo sapiens, UniProt P42261+P42262); assay: Patch-Clamp inhibition of glutamate-induced membrane currents in HEK 293 cells; type: cell-based; details: HEK 293 cells expressing recombinant human GluR1/2, 1 mM glutamate for 1 s, holding potential −80 mV
T1 construct: expressed in transfected cells; host or cells: HEK 293
T1 sequence (P42261 19-906): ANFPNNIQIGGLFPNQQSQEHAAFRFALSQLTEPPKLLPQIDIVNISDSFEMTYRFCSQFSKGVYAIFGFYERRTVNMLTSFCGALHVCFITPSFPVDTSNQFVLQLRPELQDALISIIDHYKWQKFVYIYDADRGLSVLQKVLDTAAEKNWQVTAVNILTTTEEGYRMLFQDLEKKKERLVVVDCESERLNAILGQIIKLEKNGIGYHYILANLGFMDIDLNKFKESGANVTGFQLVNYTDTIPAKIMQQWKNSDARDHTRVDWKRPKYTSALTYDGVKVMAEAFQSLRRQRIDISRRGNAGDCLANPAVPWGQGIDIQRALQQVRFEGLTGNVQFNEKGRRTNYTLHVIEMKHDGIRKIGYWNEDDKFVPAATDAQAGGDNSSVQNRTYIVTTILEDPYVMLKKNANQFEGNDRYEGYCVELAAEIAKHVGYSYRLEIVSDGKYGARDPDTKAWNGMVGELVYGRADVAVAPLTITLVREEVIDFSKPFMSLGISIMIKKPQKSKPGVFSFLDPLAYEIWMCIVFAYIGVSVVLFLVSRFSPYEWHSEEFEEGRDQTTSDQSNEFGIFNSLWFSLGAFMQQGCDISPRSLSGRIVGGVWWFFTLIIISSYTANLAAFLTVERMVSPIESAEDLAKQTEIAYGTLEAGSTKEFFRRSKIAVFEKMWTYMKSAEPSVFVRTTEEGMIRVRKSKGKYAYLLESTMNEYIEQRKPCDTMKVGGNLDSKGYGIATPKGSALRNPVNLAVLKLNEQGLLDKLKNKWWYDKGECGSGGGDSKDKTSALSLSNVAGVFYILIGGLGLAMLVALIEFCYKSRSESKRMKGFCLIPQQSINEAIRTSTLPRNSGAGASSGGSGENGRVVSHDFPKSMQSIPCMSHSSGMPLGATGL
T1 sequence (P42262 22-883 limits assumed): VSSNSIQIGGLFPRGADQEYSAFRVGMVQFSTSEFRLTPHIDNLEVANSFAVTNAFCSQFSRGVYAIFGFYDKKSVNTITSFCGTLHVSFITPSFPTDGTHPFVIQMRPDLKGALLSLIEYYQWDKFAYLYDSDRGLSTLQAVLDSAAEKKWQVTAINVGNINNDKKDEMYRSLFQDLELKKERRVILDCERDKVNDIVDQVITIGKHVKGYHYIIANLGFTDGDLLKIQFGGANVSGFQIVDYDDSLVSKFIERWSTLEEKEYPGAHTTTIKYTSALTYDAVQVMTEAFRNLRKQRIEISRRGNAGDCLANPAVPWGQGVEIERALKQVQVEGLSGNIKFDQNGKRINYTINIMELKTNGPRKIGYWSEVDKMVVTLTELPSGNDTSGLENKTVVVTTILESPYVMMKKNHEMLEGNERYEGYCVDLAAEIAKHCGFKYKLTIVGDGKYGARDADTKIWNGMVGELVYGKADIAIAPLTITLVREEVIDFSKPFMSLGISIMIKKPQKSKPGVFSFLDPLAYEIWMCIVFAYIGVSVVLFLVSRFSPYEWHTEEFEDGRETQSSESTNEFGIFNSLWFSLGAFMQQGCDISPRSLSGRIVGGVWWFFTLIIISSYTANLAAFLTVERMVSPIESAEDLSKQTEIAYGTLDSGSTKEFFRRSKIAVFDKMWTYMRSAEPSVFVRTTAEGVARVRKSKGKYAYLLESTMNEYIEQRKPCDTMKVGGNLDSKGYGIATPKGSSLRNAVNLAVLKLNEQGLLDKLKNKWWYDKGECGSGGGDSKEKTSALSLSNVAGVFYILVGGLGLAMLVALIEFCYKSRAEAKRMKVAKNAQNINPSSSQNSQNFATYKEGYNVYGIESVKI
Procedure: Ionotropic glutamate receptors of the AMPA sub-type are also essential for the excitatory neurotransmission. […] HEK 293 cells which expressed functionally recombinant human GluR1/2 receptors were electrophysiologically investigated by the Patch-Clamp method ([…]). The administration of 1 mM glutamate (for 1 s at a holding potential of −80 mV) induced membrane currents which were inhibited by the joint administration of ambroxol.

In the case of `Nc1c(Br)cc(Br)cc1CN[C@H]1CC[C@H](O)CC1` [ambroxol, trans-4-(2-amino-3,5-dibromobenzylamino)cyclohexanol], the IC50 [1] is reported as greater than 100 µM and the “concentrations inhibiting glutamate-induced membrane currents” value (human GluR1/2 receptors) is reported as 30 to 1000 µM.
